Experimental data from patent US20260146045A1, “COMPOSITIONS AND USES THEREOF” (Solve Therapeutics, Inc., priority 2022, published 2026).

Tested on: SKBR3, a breast cancer cell line
Assay: in vitro cytotoxicity assay (CellTiter-Glo viability)
Type: cell-based
Conditions: Homo sapiens, SK-BR-3, SKBR3 cells, 72 hours at 37° C., luminometer
Method: The ability of compounds to inhibit cell growth was measured using in vitro cytotoxicity assay.
Cells were cultured in log phase growth and split into 96-well plates. Each cell-line was plated at a slightly different concentration but ranged from 5×10^3 to 50x 10+ cells/well. Cells, in duplicate, were incubated with 3-fold serial dilution of a particular immunoconjugate starting at 3000 or 1000 nanomolar (3000, 1000, 333, 111, 37, 12.3, 4.1, 1.37, 0.46, 0.15 nanomolar) for 72 hours at 37° C. and 5% CO2. After treatment the cells were incubated with an equal volume of CellTiter-Glo® reagent (Promega Inc.) for 15 minutes at room temperature, and viability was determined by a luminometer.

SMILES | EC50
CC[C@@]1(O)C(=O)OCc2c1cc1n(c2=O)Cc2c-1nc1cc(F)ccc1c2CNC(=O)CN [Compound 7] | 89 nM
CC[C@@]1(O)C(=O)OCc2c1cc1n(c2=O)Cc2c-1nc1cc(F)ccc1c2CNC(=O)CO [Compound 8] | 5.6 nM
CC[C@@]1(O)C(=O)OCc2c1cc1n(c2=O)Cc2c-1nc1ccc(O)cc1c2CNC(=O)CN [Compound 13] | 1050 nM
CC[C@@]1(O)C(=O)OCc2c1cc1n(c2=O)Cc2c-1nc1ccc(O)cc1c2CNC(=O)CO [Compound 14] | 516 nM
